Source: patent US20250090557A1 (priority 2020, published 2025)

Columns and labels:
Calu3 cells = assay: Seahorse mitochondrial respirometry and cellular bioenergetics in infected Calu3 cells
Description: Flow cytometry was used to determine the cellular content of Calu3 cells for mitochondrial reactive oxygen species (mito-ROS) based on the median fluorescence intensity (MFI) of the fluorochrome MitoSOX Red and was compared to a negative cell population (fluorescence minus one negative control for staining) (ΔMFI). Flow cytometry was used to determine the percent of SARS-CoV-2 infected Calu3 cells positive for MitoSOX Red. Calu3 and Vero cells were treated with DMSO vehicle control (Ctrl) or the mitochondrial antioxidants MitoTEMPO (25-1000 nM) (72 h) or Mito-MES (25-1000 nM) (72 h) and were infected with a fluorescent mNeonGreen SARS-CoV-2 (icSARS-CoV-2-mNG) (MOI 0.3) (48 h). Immunofluorescent analysis of viral replication and cellular oxidative stress was performed at 48 h post-infection. […] Seahorse XF Analyzer was used to determine mitochondrial respirometry and cellular bioenergetics [oxygen consumption rate (OCR) and extracellular acidification rate (ECAR)] of live Calu3 cells treated with Mito-MES (25-1000 nM) or vehicle control (ctrl) (72 h) and infected with SARS-CoV-2 (MOI 0.1) (48 h). […] Viral replication was determined by TCID50-assay (FIG. 3-d), cell cytotoxicity was assessed by the XTT assay in uninfected cells treated with dTPP (0.01-10 μM) (72 h) (FIG. 3-e). […]

IFN-β and IFN-λ = type: cell-based, human
IL-1β = type: cell-based, human; conditions: infected Calu3 supernatants
IL-6 = type: cell-based, African green monkey
SARS-CoV-2 = assay: Post-exposure prophylaxis in two household-exposed parents (case report); type: in vivo, human
Source text: FIG. 8-a show the timeline of exposure, symptoms and diagnostic tests in household. Two parents [[…], A1 with history of chronic myelogenous leukemia (CML) and healthy parent 39 years, A2] were notified on Dec. 5, 2020 [defined as day 5 (D5)], that the schoolteacher (T1) of their child (C1) tested positive for SARS-CoV-2 and developed symptoms of Covid-19. C1 had 6-h exposure to T1 on November 30 (with masks) (D0). The family had no other exposure to any other person between November 20-30 (D-10 to D0) given Thanksgiving Day on November 26 (D-4). Several children and parents from the same school class were infected with Covid-19 within the first 2 weeks of December. C1 developed fever (100.4° F.;38° C.) and fatigue 2.5 days after exposure (DO) that lasted 3 days (D2-D5) and remained asymptomatic since then. The second child (C2) was asymptomatic until D12 when they developed fever (100.4° F.;38° C.), fatigue and coryza on D12-D14. A1 and A2 started Mito-MES on D4. […] A1, A2, C1 and C2 had fifteen (in total) negative NP SARS-CoV-2 PCR and each parent had 3 negative SARS-CoV-2 IgG serology over a period of 6 weeks (last NP PCR was on D42 and last SARS-CoV-2 IgG serology was on D45). The well-defined epidemiologic history around a major holiday and the timing (3-7 days) of development of symptoms in both children, confirmed that they both had Covid-19.
Two parents ([…], A1, and parent 39 years, A2) residing in Los Angeles, California were notified on Dec. 5, 2020 (defined as day 5 (D5); FIG. 8-a, C), that the schoolteacher (T1) of their child (C1) tested positive for SARS-CoV-2 and developed symptoms of Covid-19. C1 had 6-h exposure to T1 on November 30 (with masks) (DO). The family had no other exposure to any other person between November 20-30 (D-10 to DO) given Thanksgiving Day on November 26 (D-4). […]
One important consideration with COVID-19 testing is that it is often unclear how exactly the NP swab was obtained (by healthcare worker or not and whether the posterior or anterior nasopharynx were assessed). […]

With `COC1=C(OC)C(=O)C(CCCCCCCCCC[P+](c2ccccc2)(c2ccccc2)c2ccccc2)=C(C)C1=O.CS(=O)(=O)[O-]` [Mito-MES, 10-(4,5-dimethoxy-2-methyl-3,6-dioxo-1,4-cyclohexadienyl) decyl triphenylphosphonium methanesulfonate] the ROS (Calu3 cells; Calu3, 1000 nM) was “increased ROS”, the mitochondrial respirometry (Calu3 cells; Calu3, 50-1000 nM) was “reduced mitochondrial respirometry” and the “total cellular IFN-β and IFN-λ protein levels (ELISA, lysates)” value (IFN-β and IFN-λ; infected Calu3, 100-1000 nM) was “independently confirmed”. The “secretion of IFN-β and IFN-λ (ELISA, supernatants)” value (IFN-β and IFN-λ; infected Calu3, 48 h post infection, 100-1000 nM) was “did not”, the “secretion of IL-1β (Luminex)” value (IL-1β) was “tended (p=0.09) to reduce the secretion of IL-IP” and the “secretion of IL-6 resulting from SARS-CoV-2 infection (ELISA)” value (IL-6) was “attenuated the increase in secretion of IL-6”. For the same compound, the “inflammation markers in plasma” value (SARS-CoV-2; both parents, 6 timepoints over 6 weeks) was “normal CRP, ferritin and IL-6 plasma levels”, the “plasma IgG to SARS-CoV-2 S1 protein” value (SARS-CoV-2; each parent, three timepoints over 5 weeks) was “undetectable levels of plasma IgG to SARS-CoV-2 S1 protein” and the “symptoms and virological/serological confirmation of infection” value (SARS-CoV-2; two parents, 20 mg/day oral, 6 weeks, repeated household exposure) was “remained asymptomatic and without virological and serological confirmation of infection”.
